Assay results taken from PubChem BioAssay (NCI).
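Results reflect a 48-hour exposure of cells in 96-well plates to compound at five concentrations. GI50 is the concentration that inhibits growth by half. TGI: concentration producing complete growth inhibition.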

What was measured:
Assay in all cases: NCI tumour cell line growth inhibition, 48 h
BT-549 breast = test system: BT-549 breast
HCT-15 colon = test system: HCT-15 colon
NCI-H460 lung = test system: NCI-H460 lung
TK-10 renal = test system: TK-10 renal
NCI-H522 lung = test system: NCI-H522 lung
EKVX NSCLC = test system: EKVX NSCLC
SK-MEL-28 melanoma = test system: SK-MEL-28 melanoma
HOP-92 NSCLC = test system: HOP-92 NSCLC
HT29 colon = test system: HT29 colon
SK-OV-3 ovarian = test system: SK-OV-3 ovarian
OVCAR-8 ovarian = test system: OVCAR-8 ovarian
MCF7 breast = test system: MCF7 breast
LOX IMVI melanoma = test system: LOX IMVI melanoma
HS 578T breast = test system: HS 578T breast
M14 melanoma = test system: M14 melanoma
SW-620 colon = test system: SW-620 colon
T-47D breast = test system: T-47D breast
SN12C renal = test system: SN12C renal
UACC-62 melanoma = test system: UACC-62 melanoma
MALME-3M melanoma = test system: MALME-3M melanoma
RPMI-8226 leukemia = test system: RPMI-8226 leukemia
HOP-62 NSCLC = test system: HOP-62 NSCLC
CAKI-1 renal = test system: CAKI-1 renal
A549 NSCLC = test system: A549 NSCLC
SK-MEL-5 melanoma = test system: SK-MEL-5 melanoma
ACHN renal = test system: ACHN renal
CCRF-CEM leukemia = test system: CCRF-CEM leukemia
IGROV1 ovarian = test system: IGROV1 ovarian
DU-145 prostate = test system: DU-145 prostate
PC-3 prostate = test system: PC-3 prostate
OVCAR-3 ovarian = test system: OVCAR-3 ovarian
SF-295 CNS = test system: SF-295 CNS
NCI-H23 lung = test system: NCI-H23 lung
SF-539 CNS = test system: SF-539 CNS
HL-60(TB) leukemia = test system: HL-60(TB) leukemia
RXF 393 renal = test system: RXF 393 renal
KM12 colon = test system: KM12 colon
OVCAR-5 ovarian = test system: OVCAR-5 ovarian
MDA-MB-231 breast = test system: MDA-MB-231 breast
OVCAR-4 ovarian = test system: OVCAR-4 ovarian
NCI-H226 lung = test system: NCI-H226 lung
COLO 205 colon = test system: COLO 205 colon
SNB-19 CNS = test system: SNB-19 CNS
A498 renal = test system: A498 renal
UACC-257 melanoma = test system: UACC-257 melanoma
NCI/ADR-RES ovarian = test system: NCI/ADR-RES ovarian
SK-MEL-2 melanoma = test system: SK-MEL-2 melanoma
U251 CNS = test system: U251 CNS
MDA-MB-435 = test system: MDA-MB-435
UO-31 renal = test system: UO-31 renal
HCT-116 colon = test system: HCT-116 colon
SF-268 CNS = test system: SF-268 CNS
SR leukemia = test system: SR leukemia
K-562 leukemia = test system: K-562 leukemia
MOLT-4 leukemia = test system: MOLT-4 leukemia
HCC-2998 colon = test system: HCC-2998 colon
786-0 renal = test system: 786-0 renal
SNB-75 CNS = test system: SNB-75 CNS

In the case of `CCN(CC)c1ccc(/C=N/NC(=O)c2ccc(NS(C)(=O)=O)cc2)cc1`, the GI50 (BT-549 breast) is reported as 0.847 µM, the TGI (BT-549 breast) is reported as 11.2 µM and the GI50 (HCT-15 colon) is reported as 0.431 µM. The TGI (HCT-15 colon) was 49.1 µM, the GI50 (NCI-H460 lung) was 0.564 µM and the TGI (NCI-H460 lung) was 11.8 µM. The GI50 (TK-10 renal) was 1.74 µM, the TGI (TK-10 renal) was over 92.6 µM and the GI50 (NCI-H522 lung) was 0.418 µM. It also gave a TGI (NCI-H522 lung) of 15.1 µM, a GI50 (EKVX NSCLC) of 1.01 µM and a TGI (EKVX NSCLC) of over 77 µM. It also gave a GI50 (SK-MEL-28 melanoma) of 0.498 µM, a TGI (SK-MEL-28 melanoma) of over 78.2 µM and a GI50 (HOP-92 NSCLC) of 0.457 µM. For the same compound, the TGI (HOP-92 NSCLC) was 40.3 µM, the GI50 (HT29 colon) was 0.556 µM and the TGI (HT29 colon) was 18.7 µM. It also gave a GI50 (SK-OV-3 ovarian) of 1.05 µM, a TGI (SK-OV-3 ovarian) of 27.7 µM and a GI50 (OVCAR-8 ovarian) of 0.445 µM. It also gave a TGI (OVCAR-8 ovarian) of over 100 µM, a GI50 (MCF7 breast) of 0.598 µM and a TGI (MCF7 breast) of over 100 µM. For the same compound, the GI50 (LOX IMVI melanoma) was 0.301 µM, the TGI (LOX IMVI melanoma) was 10.9 µM and the GI50 (HS 578T breast) was 2.74 µM. For the same compound, the TGI (HS 578T breast) was 58.9 µM, the GI50 (M14 melanoma) was 0.463 µM and the TGI (M14 melanoma) was 3.42 µM. For the same compound, the GI50 (SW-620 colon) was 0.693 µM, the TGI (SW-620 colon) was over 100 µM and the GI50 (T-47D breast) was 1.22 µM. It also gave a TGI (T-47D breast) of over 72.1 µM, a GI50 (SN12C renal) of 0.978 µM and a TGI (SN12C renal) of over 100 µM. For the same compound, the GI50 (UACC-62 melanoma) was 0.526 µM, the TGI (UACC-62 melanoma) was 10.2 µM and the GI50 (MALME-3M melanoma) was 1.17 µM. The TGI (MALME-3M melanoma) was 15.3 µM, the GI50 (RPMI-8226 leukemia) was 4.28 µM and the TGI (RPMI-8226 leukemia) was over 60.7 µM. The GI50 (HOP-62 NSCLC) was 0.415 µM, the TGI (HOP-62 NSCLC) was 17.8 µM and the GI50 (CAKI-1 renal) was 0.554 µM. The TGI (CAKI-1 renal) was over 47 µM, the GI50 (A549 NSCLC) was 2.43 µM and the TGI (A549 NSCLC) was over 100 µM. For the same compound, the GI50 (SK-MEL-5 melanoma) was 1.67 µM, the TGI (SK-MEL-5 melanoma) was over 46.5 µM and the GI50 (ACHN renal) was 0.656 µM. For the same compound, the TGI (ACHN renal) was 57.1 µM, the GI50 (CCRF-CEM leukemia) was 0.301 µM and the TGI (CCRF-CEM leukemia) was over 100 µM. It also gave a GI50 (IGROV1 ovarian) of 0.716 µM, a TGI (IGROV1 ovarian) of over 100 µM and a GI50 (DU-145 prostate) of 0.933 µM. It also gave a TGI (DU-145 prostate) of over 100 µM, a GI50 (PC-3 prostate) of 0.561 µM and a TGI (PC-3 prostate) of over 100 µM. It also gave a GI50 (OVCAR-3 ovarian) of 0.231 µM, a TGI (OVCAR-3 ovarian) of 20.1 µM and a GI50 (SF-295 CNS) of 0.828 µM. It also gave a TGI (SF-295 CNS) of 20.7 µM, a GI50 (NCI-H23 lung) of 1.89 µM and a TGI (NCI-H23 lung) of over 100 µM. For the same compound, the GI50 (SF-539 CNS) was 0.571 µM, the TGI (SF-539 CNS) was 11.3 µM and the GI50 (HL-60(TB) leukemia) was 0.294 µM. It also gave a GI50 (RXF 393 renal) of 1.18 µM, a TGI (RXF 393 renal) of 4.78 µM and a GI50 (KM12 colon) of 0.907 µM. The TGI (KM12 colon) was over 66.8 µM, the GI50 (OVCAR-5 ovarian) was 2.32 µM and the TGI (OVCAR-5 ovarian) was over 100 µM. It also gave a GI50 (MDA-MB-231 breast) of 0.546 µM, a TGI (MDA-MB-231 breast) of over 72.1 µM and a GI50 (OVCAR-4 ovarian) of 0.409 µM. For the same compound, the TGI (OVCAR-4 ovarian) was over 100 µM, the GI50 (NCI-H226 lung) was 1.21 µM and the TGI (NCI-H226 lung) was 38 µM. For the same compound, the GI50 (COLO 205 colon) was 0.643 µM, the TGI (COLO 205 colon) was 25.9 µM and the GI50 (SNB-19 CNS) was 1.6 µM. It also gave a TGI (SNB-19 CNS) of over 79.6 µM, a GI50 (A498 renal) of 6.09 µM and a TGI (A498 renal) of 41.3 µM. It also gave a GI50 (UACC-257 melanoma) of 1.1 µM, a TGI (UACC-257 melanoma) of 21.2 µM and a GI50 (NCI/ADR-RES ovarian) of 3.86 µM. For the same compound, the TGI (NCI/ADR-RES ovarian) was over 100 µM, the GI50 (SK-MEL-2 melanoma) was 4.33 µM and the TGI (SK-MEL-2 melanoma) was 24.6 µM. The GI50 (U251 CNS) was 0.236 µM, the TGI (U251 CNS) was over 44.5 µM and the GI50 (MDA-MB-435) was 1.56 µM. It also gave a TGI (MDA-MB-435) of over 100 µM, a GI50 (UO-31 renal) of 0.58 µM and a TGI (UO-31 renal) of 24.4 µM. It also gave a GI50 (HCT-116 colon) of 0.352 µM, a TGI (HCT-116 colon) of over 87.7 µM and a GI50 (SF-268 CNS) of 0.383 µM. The TGI (SF-268 CNS) was over 49 µM, the GI50 (SR leukemia) was 0.17 µM and the TGI (SR leukemia) was over 100 µM. For the same compound, the GI50 (K-562 leukemia) was 0.595 µM, the TGI (K-562 leukemia) was over 100 µM and the GI50 (MOLT-4 leukemia) was 0.433 µM. For the same compound, the TGI (MOLT-4 leukemia) was over 41.3 µM, the GI50 (HCC-2998 colon) was 0.704 µM and the TGI (HCC-2998 colon) was over 76.8 µM. It also gave a GI50 (786-0 renal) of 0.714 µM, a TGI (786-0 renal) of 6.48 µM and a GI50 (SNB-75 CNS) of 0.434 µM. It also gave a TGI (SNB-75 CNS) of 16.9 µM.
